According to patent US20130059920A1, “HYDROXYTYROSOL BENEFITS MUSCLE DIFFERENTIATION AND MUSCLE CONTRACTION AND RELAXATION” (DSM IP ASSETS, B.V., priority 2009, published 2013):

Columns and labels:
GSH and MDA in LTE rats = format: in vivo, Sprague-Dawley rats; conditions: 25 mg/kg/day, data not shown
[1] = test system: genes of calcium signaling and flux; assay: Gene chip analysis of human skeletal muscle biopsies (vastus lateralis), Human Genome U133 Plus 2.0; format: in vivo; conditions: 6 weeks, human muscle biopsy
Method: Three groups each n=20 were enrolled in the study. The group assignment was randomly done by subject weight across the 3 groups. Each subject received a total of 3 capsules each day over a period of 6 weeks: • Group 1—Placebo: 3 capsules with each 333 mg of modified starch • Group 2—LOW (50 mg/d hydroxytyrosol): 1 capsule with 333 mg investigational product (1 capsule with 50 mg hydroxytyrosol) and 2 capsules with each 333 mg modified starch • Group 3—HIGH (150 mg/d hydroxytyrosol): 3 capsules with each 333mg investigational product ([…])
Muscle biopsy was performed at 2 h after ingestion of the supplements as it had taken 30 min setup time before the tissue can be removed. Two skeletal muscle tissue biopsies were taken at beginning (day 1, baseline sample) of the study and at day 42. The following was assessed in skeletal muscle tissue: 1) global gene expression profile and 2) cellular factors in tissue involved in energy metabolism or other specific pathways.
A muscle biopsy (100 mg) was taken from the vastus lateralis, a thigh muscle.
The skin was cleaned with 10% povidone-iodine (Betadine Solution, Purdue Pharma L.P., Stamford, Conn.) and then anesthetized by injecting 1.5 cc of 1% Lidocaine-HCL into the skin. A 5-8 mm incision was made in the skin and subcutaneous fat, and then approximately 100 mg of muscle tissue was removed using a Bergstrom biopsy needle from the thigh musculature (Dyna Medical, London, Ont. Canada).
The biopsy was trimmed of adipose and connective tissue, weighted and separated into 25 mg and 75 mg, placed into labelled and cooled cryotubes and immediately frozen in liquid nitrogen. Samples are stored at −80° C. for subsequent analysis. The incision site will be sealed using butterfly bandages, then wrapped with a pressure pack to minimize bruising. Approximately 25 mg of muscle tissue was used to determine the effect of the olive product on the gene expression profile involved in the energy metabolism. Neither the Sponsor nor the investigator has performed genetic finger printing and has destroyed any remaining tissue after their testing has been completed.
RNA extraction from frozen tissue samples (skeletal muscle biopsies) as described above was done using Trizol method as followed:
RNA was processed using the 3′IVT Express Kit (Affymetrix, Cat. No. 901229) according to the manual.
Fragmented aRNA for each sample was hybridized onto a Human Genome U133 Plus 2.0 Gene Chip (Affymetrix, Cat. No. 900467).
All CEL files from Affymetrix were uploaded into the analysis software (Partek) using GCRMA. GCRMA is a method of converting CEL files into expression set using the Robust Multi-array Average (RMA) with the help of probe sequence and with GC-content background correction. It is a method for normalizing and summarizing probe-level intensity measurements from Affymetrix GeneChips. Three steps: Background correction, normalization, summarization.
After GCRMA preprocessing of the .CEL files, we exported the log 2-transformed expression values from Partek and imported them into the R statistics software (version 2.9.2, http://www.R-project.org). The 57 subjects for which both a pre- and a post-measurement was available were included in the analysis. We applied an ANCOVA (analysis of covariance) with the baseline measurement as covariate to each of the 54675 probesets. The aim was to compare the treatment effect between the groups, while adjusting for the individual baselines which might differ between subjects. The treatment effect between groups can thus be estimated more precisely since the subject-to-subject variability can be separated from the within-subject variability. The baseline and the end-measurements correlated well with each other within the subjects. […]

[2] = Endurance capacity, treadmill running to exhaustion after 8 weeks long-term exercise (LTE); format: in vivo, Sprague-Dawley rats; conditions: exercise (LTE) rats, 25 mg/kg/day by gavage
Method: Sprague-Dawley male rats were purchased from a commercial breeder (SLAC, Shanghai). The rats were housed in a temperature—(22-28° C.) and humidity—(60%) controlled animal room and maintained on a 12-h light/12-h dark cycle (light on from 08:00 a.m. to 08:00 p.m.) with free access to food and water throughout the experiments. […] rats weighing 180-200 g were used. At the beginning of experiments, male rats were selected by one week running exercise at low speed (10 m/min, 20 min/day) and those high exercise activity rats were chosen for the experiments. Rats were randomly divided into four groups: Sedentary, Sedentary with HT supplement (25 mg/kg/day), Endurance exercise and Endurance exercise with HT supplement (25 mg/kg/day). HT was administrated by gavage 45 min before exercise program for each animal. Rats were run on a motorized treadmill at a speed of 20 m/min and a grade of 5° for 1 hour per day and 6 days per week. After 8 weeks exercise, endurance capacity was measured by treadmill running to exhaustion at a speed of 30 m/min and a grade of 5°. Exhaustion was defined as the inability to maintain running and avoid sound and light irritation.

OCCc1ccc(O)c(O)c1 [hydroxytyrosol, 3,4-dihydroxyphenylethanol]
GSH (GSH and MDA in LTE rats): no effect | MDA (GSH and MDA in LTE rats): no effect | baseline-corrected fold-change vs placebo: ATPase, Ca++ transporting, cardiac muscle, fast twitch 1 ([1]; 50 mg HT/d): 1.11 | baseline-corrected fold-change vs placebo: ATPase, Ca++ transporting, plasma membrane 2 ([1]; 50 mg HT/d): 1.06 | baseline-corrected fold-change vs placebo: ATPase, Ca++ transporting, plasma membrane 4 ([1]; 50 mg HT/d): 1.10 | baseline-corrected fold-change vs placebo: ATPase, Ca++ transporting, type 2C, member 1 ([1]; 50 mg HT/d): 1.07 | baseline-corrected fold-change vs placebo: C2 calcium-dependent domain containing 3 ([1]; 50 mg HT/d): 1.13 | baseline-corrected fold-change vs placebo: EF-hand calcium binding domain 2 ([1]; 50 mg HT/d): 1.09 | baseline-corrected fold-change vs placebo: EF-hand calcium binding domain 7 ([1]; 50 mg HT/d): 1.00 | baseline-corrected fold-change vs placebo: S100 calcium binding protein A4 ([1]; 50 mg HT/d): 1.07 | baseline-corrected fold-change vs placebo: S100 calcium binding protein A8 ([1]; 50 mg HT/d): 1.08 | baseline-corrected fold-change vs placebo: S100 calcium binding protein A10 ([1]; 50 mg HT/d): 1.06 | baseline-corrected fold-change vs placebo: S100 calcium binding protein A13 ([1]; 50 mg HT/d): 1.05 | baseline-corrected fold-change vs placebo: S100 calcium binding protein B ([1]; 50 mg HT/d): 1.05 | baseline-corrected fold-change vs placebo: annexin A1 ([1]; 50 mg HT/d): 1.11 | baseline-corrected fold-change vs placebo: annexin A2 ([1]; 50 mg HT/d): 1.13 | baseline-corrected fold-change vs placebo: annexin A2 pseudogene 2 ([1]; 50 mg HT/d): 1.09 | baseline-corrected fold-change vs placebo: annexin A6 ([1]; 50 mg HT/d): 1.06 | baseline-corrected fold-change vs placebo: annexin A11 ([1]; 50 mg HT/d): 1.04 | baseline-corrected fold-change vs placebo: cadherin, EGF LAG seven-pass G-type receptor 2 (flamingo homolog, Drosophila) ([1]; 50 mg HT/d): 1.08 | baseline-corrected fold-change vs placebo: calbindin 2 ([1]; 50 mg HT/d): 1.06 | baseline-corrected fold-change vs placebo: calcineurin-like phosphoesterase domain containing 1 ([1]; 50 mg HT/d): 1.11 | baseline-corrected fold-change vs placebo: calcium and integrin binding family member 2 ([1]; 50 mg HT/d): 0.98 | baseline-corrected fold-change vs placebo: calcium binding protein 4 ([1]; 50 mg HT/d): 1.07 | baseline-corrected fold-change vs placebo: calcium binding protein 39 ([1]; 50 mg HT/d): 1.07 | baseline-corrected fold-change vs placebo: calcium channel, voltage-dependent, L type, alpha 1S subunit ([1]; 50 mg HT/d): 1.03 | baseline-corrected fold-change vs placebo: calcium channel, voltage-dependent, beta 1 subunit ([1]; 50 mg HT/d): 1.02 | baseline-corrected fold-change vs placebo: calcium channel, voltage-dependent, gamma subunit 1 ([1]; 50 mg HT/d): 1.03 | baseline-corrected fold-change vs placebo: calcium channel, voltage-dependent, gamma subunit 6 ([1]; 50 mg HT/d): 1.06 | baseline-corrected fold-change vs placebo: calcium/calmodulin-dependent protein kinase II delta ([1]; 50 mg HT/d): 1.09 | baseline-corrected fold-change vs placebo: calcium/calmodulin-dependent protein kinase kinase 2, beta ([1]; 50 mg HT/d): 1.11 | baseline-corrected fold-change vs placebo: calmodulin 1 (phosphorylase kinase, delta) ([1]; 50 mg HT/d): 1.14 | baseline-corrected fold-change vs placebo: calmodulin 3 (phosphorylase kinase, delta) ([1]; 50 mg HT/d): 1.09 | baseline-corrected fold-change vs placebo: calmodulin regulated spectrin-associated protein 1 ([1]; 50 mg HT/d): 1.04 | baseline-corrected fold-change vs placebo: calnexin ([1]; 50 mg HT/d): 0.98 | baseline-corrected fold-change vs placebo: calpain 2, (m/II) large subunit ([1]; 50 mg HT/d): 1.04 | baseline-corrected fold-change vs placebo: calpain 3, (p94) ([1]; 50 mg HT/d): 0.99 | baseline-corrected fold-change vs placebo: calreticulin ([1]; 50 mg HT/d): 1.06 | baseline-corrected fold-change vs placebo: protein phosphatase 3, catalytic subunit, alpha isozyme ([1]; 50 mg HT/d): 1.09 | baseline-corrected fold-change vs placebo: regulator of calcineurin 1 ([1]; 50 mg HT/d): 1.07 | baseline-corrected fold-change vs placebo: ryanodine receptor 3 ([1]; 50 mg HT/d): 1.23 | baseline-corrected fold-change vs placebo: striatin, calmodulin binding protein 3 ([1]; 50 mg HT/d): 1.13 | baseline-corrected fold-change vs placebo: ATPase, Ca++ transporting, cardiac muscle, fast twitch 1 ([1]; 150 mg HT/d): 1.196 | baseline-corrected fold-change vs placebo: ATPase, Ca++ transporting, plasma membrane 2 ([1]; 150 mg HT/d): 1.174 | baseline-corrected fold-change vs placebo: ATPase, Ca++ transporting, plasma membrane 4 ([1]; 150 mg HT/d): 1.023 | baseline-corrected fold-change vs placebo: ATPase, Ca++ transporting, type 2C, member 1 ([1]; 150 mg HT/d): 1.080 | baseline-corrected fold-change vs placebo: C2 calcium-dependent domain containing 3 ([1]; 150 mg HT/d): 1.078 | baseline-corrected fold-change vs placebo: EF-hand calcium binding domain 2 ([1]; 150 mg HT/d): 1.080 | baseline-corrected fold-change vs placebo: EF-hand calcium binding domain 7 ([1]; 150 mg HT/d): 1.075 | baseline-corrected fold-change vs placebo: S100 calcium binding protein A4 ([1]; 150 mg HT/d): 1.114 | baseline-corrected fold-change vs placebo: S100 calcium binding protein A8 ([1]; 150 mg HT/d): 1.056 | baseline-corrected fold-change vs placebo: S100 calcium binding protein A10 ([1]; 150 mg HT/d): 1.045 | baseline-corrected fold-change vs placebo: S100 calcium binding protein A13 ([1]; 150 mg HT/d): 1.064 | baseline-corrected fold-change vs placebo: S100 calcium binding protein B ([1]; 150 mg HT/d): 1.019 | baseline-corrected fold-change vs placebo: annexin A1 ([1]; 150 mg HT/d): 1.070 | baseline-corrected fold-change vs placebo: annexin A2 ([1]; 150 mg HT/d): 1.047 | baseline-corrected fold-change vs placebo: annexin A2 pseudogene 2 ([1]; 150 mg HT/d): 1.007 | baseline-corrected fold-change vs placebo: annexin A6 ([1]; 150 mg HT/d): 1.062 | baseline-corrected fold-change vs placebo: annexin A11 ([1]; 150 mg HT/d): 1.065 | baseline-corrected fold-change vs placebo: cadherin, EGF LAG seven-pass G-type receptor 2 (flamingo homolog, Drosophila) ([1]; 150 mg HT/d): 1.030 | baseline-corrected fold-change vs placebo: calbindin 2 ([1]; 150 mg HT/d): 1.006 | baseline-corrected fold-change vs placebo: calcineurin-like phosphoesterase domain containing 1 ([1]; 150 mg HT/d): 1.070 | baseline-corrected fold-change vs placebo: calcium and integrin binding family member 2 ([1]; 150 mg HT/d): 1.114 | baseline-corrected fold-change vs placebo: calcium binding protein 4 ([1]; 150 mg HT/d): 1.024 | baseline-corrected fold-change vs placebo: calcium binding protein 39 ([1]; 150 mg HT/d): 1.082 | baseline-corrected fold-change vs placebo: calcium channel, voltage-dependent, L type, alpha 1S subunit ([1]; 150 mg HT/d): 1.080 | baseline-corrected fold-change vs placebo: calcium channel, voltage-dependent, beta 1 subunit ([1]; 150 mg HT/d): 1.125 | baseline-corrected fold-change vs placebo: calcium channel, voltage-dependent, gamma subunit 1 ([1]; 150 mg HT/d): 1.087 | baseline-corrected fold-change vs placebo: calcium channel, voltage-dependent, gamma subunit 6 ([1]; 150 mg HT/d): 1.178 | baseline-corrected fold-change vs placebo: calcium/calmodulin-dependent protein kinase II delta ([1]; 150 mg HT/d): 1.113 | baseline-corrected fold-change vs placebo: calcium/calmodulin-dependent protein kinase kinase 2, beta ([1]; 150 mg HT/d): 1.033 | baseline-corrected fold-change vs placebo: calmodulin 1 (phosphorylase kinase, delta) ([1]; 150 mg HT/d): 1.153 | baseline-corrected fold-change vs placebo: calmodulin 3 (phosphorylase kinase, delta) ([1]; 150 mg HT/d): 1.041 | baseline-corrected fold-change vs placebo: calmodulin regulated spectrin-associated protein 1 ([1]; 150 mg HT/d): 1.089 | baseline-corrected fold-change vs placebo: calnexin ([1]; 150 mg HT/d): 1.066 | baseline-corrected fold-change vs placebo: calpain 2, (m/II) large subunit ([1]; 150 mg HT/d): 1.053 | baseline-corrected fold-change vs placebo: calpain 3, (p94) ([1]; 150 mg HT/d): 1.082 | baseline-corrected fold-change vs placebo: calreticulin ([1]; 150 mg HT/d): 1.044 | baseline-corrected fold-change vs placebo: protein phosphatase 3, catalytic subunit, alpha isozyme ([1]; 150 mg HT/d): 1.048 | baseline-corrected fold-change vs placebo: regulator of calcineurin 1 ([1]; 150 mg HT/d): 1.009 | baseline-corrected fold-change vs placebo: ryanodine receptor 3 ([1]; 150 mg HT/d): 1.355 | baseline-corrected fold-change vs placebo: striatin, calmodulin binding protein 3 ([1]; 150 mg HT/d): 1.024 | improvement of endurance capacity [2]: 35%
